Two compounds from US11274100B2, “EP300/CREBBP inhibitor” (Daiichi Sankyo Company, Limited, priority 2017, dated 2022) can be followed below.

As a reminder, the IC50 is the concentration at which inhibition is half-maximal. One may read the GI50 as the concentration at which growth is held to half of that of the control.

The target of assay [1] is EP300 (Homo sapiens, UniProt Q09472). Briefly: Histone acetyltransferase inhibitory activity against EP300 (Test Example 1). Format: biochemical. The settings on record: 50 ng/mL EP300, 2 μM Acetyl-CoA, 100 nM Histone H4(1-25)-GSGSK (Biotin), 28° C. for 1 hour. The method, boiled down: (§1)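 Enzyme (50 ng/mL EP300 or 125 ng/mL CREBBP) incubated 1 h at 28° C with 2 μM acetyl-CoA, 100 nM biotinylated histone H4(1-25) peptide and 10 to 0.0006 μM compound in pH 8.0 Tris buffer with 330 nM trichostatin A, 1% DMSO. Reaction stopped with Lys-CoA; acetylation read by TR-FRET (Eu-anti pan-Ac/Sta-ULight) after overnight room-temperature incubation.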
Sequence of EP300 (Q09472 whole entry): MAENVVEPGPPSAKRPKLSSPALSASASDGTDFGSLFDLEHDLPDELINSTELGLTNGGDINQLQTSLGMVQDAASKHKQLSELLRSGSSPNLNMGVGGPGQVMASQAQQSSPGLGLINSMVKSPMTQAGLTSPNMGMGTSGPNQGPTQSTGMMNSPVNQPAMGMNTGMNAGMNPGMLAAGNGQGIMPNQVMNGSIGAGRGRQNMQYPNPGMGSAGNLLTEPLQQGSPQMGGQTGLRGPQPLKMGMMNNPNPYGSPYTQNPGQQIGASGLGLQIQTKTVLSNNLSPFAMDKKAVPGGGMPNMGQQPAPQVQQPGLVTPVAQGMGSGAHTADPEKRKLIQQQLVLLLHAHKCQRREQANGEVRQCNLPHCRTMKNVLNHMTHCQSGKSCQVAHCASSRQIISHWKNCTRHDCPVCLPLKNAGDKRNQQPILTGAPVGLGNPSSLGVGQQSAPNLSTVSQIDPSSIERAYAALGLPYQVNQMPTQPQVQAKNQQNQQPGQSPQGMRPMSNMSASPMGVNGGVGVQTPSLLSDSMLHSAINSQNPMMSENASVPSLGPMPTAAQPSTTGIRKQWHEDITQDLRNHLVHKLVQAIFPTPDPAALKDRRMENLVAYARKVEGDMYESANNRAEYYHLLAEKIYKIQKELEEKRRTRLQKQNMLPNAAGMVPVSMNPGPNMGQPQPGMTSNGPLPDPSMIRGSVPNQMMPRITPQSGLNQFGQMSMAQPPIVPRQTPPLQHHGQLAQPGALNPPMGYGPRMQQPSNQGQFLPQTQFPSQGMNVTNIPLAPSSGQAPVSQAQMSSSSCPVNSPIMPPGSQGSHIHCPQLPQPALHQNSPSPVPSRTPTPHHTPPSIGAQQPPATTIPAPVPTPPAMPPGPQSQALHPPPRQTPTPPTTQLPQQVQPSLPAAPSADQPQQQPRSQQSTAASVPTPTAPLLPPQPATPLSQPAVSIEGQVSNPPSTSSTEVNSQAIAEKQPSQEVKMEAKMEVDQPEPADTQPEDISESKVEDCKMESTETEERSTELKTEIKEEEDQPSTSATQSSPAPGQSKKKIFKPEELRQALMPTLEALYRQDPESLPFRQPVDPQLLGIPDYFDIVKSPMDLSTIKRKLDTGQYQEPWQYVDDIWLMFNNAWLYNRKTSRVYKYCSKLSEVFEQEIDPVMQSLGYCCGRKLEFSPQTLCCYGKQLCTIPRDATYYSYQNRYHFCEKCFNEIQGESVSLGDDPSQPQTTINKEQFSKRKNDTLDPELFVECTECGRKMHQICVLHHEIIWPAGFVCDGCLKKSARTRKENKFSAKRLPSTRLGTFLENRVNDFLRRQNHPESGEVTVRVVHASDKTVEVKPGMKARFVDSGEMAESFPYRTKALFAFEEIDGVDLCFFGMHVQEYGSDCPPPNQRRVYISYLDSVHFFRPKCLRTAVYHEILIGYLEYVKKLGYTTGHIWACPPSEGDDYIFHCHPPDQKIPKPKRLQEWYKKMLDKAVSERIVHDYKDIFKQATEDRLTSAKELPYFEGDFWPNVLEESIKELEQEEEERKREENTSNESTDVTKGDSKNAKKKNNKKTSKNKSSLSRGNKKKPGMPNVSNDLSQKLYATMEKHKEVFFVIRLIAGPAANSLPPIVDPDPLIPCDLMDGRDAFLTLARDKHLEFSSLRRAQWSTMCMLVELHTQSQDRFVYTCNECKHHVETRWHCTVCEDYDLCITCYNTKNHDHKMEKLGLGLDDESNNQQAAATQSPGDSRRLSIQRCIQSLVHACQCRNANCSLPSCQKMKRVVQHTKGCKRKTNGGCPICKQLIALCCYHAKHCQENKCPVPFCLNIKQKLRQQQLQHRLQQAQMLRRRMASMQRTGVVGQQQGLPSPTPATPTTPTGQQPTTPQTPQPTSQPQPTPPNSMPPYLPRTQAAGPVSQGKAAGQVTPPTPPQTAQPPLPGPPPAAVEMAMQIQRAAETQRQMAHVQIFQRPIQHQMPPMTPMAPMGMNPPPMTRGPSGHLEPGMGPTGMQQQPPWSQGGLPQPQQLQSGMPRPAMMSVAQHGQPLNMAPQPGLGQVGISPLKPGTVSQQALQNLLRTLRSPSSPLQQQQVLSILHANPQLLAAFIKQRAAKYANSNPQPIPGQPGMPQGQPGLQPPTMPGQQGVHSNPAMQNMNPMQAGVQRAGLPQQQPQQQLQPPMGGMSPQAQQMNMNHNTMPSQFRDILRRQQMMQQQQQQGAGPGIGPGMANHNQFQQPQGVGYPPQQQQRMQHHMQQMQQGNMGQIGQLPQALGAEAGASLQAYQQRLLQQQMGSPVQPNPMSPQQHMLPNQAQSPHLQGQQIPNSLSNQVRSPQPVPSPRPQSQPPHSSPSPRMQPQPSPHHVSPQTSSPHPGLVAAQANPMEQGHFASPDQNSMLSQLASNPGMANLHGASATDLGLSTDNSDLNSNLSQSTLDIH

The target of assay [2] is CREBBP (Homo sapiens, UniProt Q92793). Nature of the assay: Histone acetyltransferase inhibitory activity against CREBBP (Test Example 1). Format: biochemical. The settings on record: 125 ng/mL CREBBP, 2 μM Acetyl-CoA, 100 nM Histone H4(1-25)-GSGSK (Biotin), 28° C. for 1 hour. The method, boiled down: as §1
Sequence of CREBBP (Q92793 whole entry): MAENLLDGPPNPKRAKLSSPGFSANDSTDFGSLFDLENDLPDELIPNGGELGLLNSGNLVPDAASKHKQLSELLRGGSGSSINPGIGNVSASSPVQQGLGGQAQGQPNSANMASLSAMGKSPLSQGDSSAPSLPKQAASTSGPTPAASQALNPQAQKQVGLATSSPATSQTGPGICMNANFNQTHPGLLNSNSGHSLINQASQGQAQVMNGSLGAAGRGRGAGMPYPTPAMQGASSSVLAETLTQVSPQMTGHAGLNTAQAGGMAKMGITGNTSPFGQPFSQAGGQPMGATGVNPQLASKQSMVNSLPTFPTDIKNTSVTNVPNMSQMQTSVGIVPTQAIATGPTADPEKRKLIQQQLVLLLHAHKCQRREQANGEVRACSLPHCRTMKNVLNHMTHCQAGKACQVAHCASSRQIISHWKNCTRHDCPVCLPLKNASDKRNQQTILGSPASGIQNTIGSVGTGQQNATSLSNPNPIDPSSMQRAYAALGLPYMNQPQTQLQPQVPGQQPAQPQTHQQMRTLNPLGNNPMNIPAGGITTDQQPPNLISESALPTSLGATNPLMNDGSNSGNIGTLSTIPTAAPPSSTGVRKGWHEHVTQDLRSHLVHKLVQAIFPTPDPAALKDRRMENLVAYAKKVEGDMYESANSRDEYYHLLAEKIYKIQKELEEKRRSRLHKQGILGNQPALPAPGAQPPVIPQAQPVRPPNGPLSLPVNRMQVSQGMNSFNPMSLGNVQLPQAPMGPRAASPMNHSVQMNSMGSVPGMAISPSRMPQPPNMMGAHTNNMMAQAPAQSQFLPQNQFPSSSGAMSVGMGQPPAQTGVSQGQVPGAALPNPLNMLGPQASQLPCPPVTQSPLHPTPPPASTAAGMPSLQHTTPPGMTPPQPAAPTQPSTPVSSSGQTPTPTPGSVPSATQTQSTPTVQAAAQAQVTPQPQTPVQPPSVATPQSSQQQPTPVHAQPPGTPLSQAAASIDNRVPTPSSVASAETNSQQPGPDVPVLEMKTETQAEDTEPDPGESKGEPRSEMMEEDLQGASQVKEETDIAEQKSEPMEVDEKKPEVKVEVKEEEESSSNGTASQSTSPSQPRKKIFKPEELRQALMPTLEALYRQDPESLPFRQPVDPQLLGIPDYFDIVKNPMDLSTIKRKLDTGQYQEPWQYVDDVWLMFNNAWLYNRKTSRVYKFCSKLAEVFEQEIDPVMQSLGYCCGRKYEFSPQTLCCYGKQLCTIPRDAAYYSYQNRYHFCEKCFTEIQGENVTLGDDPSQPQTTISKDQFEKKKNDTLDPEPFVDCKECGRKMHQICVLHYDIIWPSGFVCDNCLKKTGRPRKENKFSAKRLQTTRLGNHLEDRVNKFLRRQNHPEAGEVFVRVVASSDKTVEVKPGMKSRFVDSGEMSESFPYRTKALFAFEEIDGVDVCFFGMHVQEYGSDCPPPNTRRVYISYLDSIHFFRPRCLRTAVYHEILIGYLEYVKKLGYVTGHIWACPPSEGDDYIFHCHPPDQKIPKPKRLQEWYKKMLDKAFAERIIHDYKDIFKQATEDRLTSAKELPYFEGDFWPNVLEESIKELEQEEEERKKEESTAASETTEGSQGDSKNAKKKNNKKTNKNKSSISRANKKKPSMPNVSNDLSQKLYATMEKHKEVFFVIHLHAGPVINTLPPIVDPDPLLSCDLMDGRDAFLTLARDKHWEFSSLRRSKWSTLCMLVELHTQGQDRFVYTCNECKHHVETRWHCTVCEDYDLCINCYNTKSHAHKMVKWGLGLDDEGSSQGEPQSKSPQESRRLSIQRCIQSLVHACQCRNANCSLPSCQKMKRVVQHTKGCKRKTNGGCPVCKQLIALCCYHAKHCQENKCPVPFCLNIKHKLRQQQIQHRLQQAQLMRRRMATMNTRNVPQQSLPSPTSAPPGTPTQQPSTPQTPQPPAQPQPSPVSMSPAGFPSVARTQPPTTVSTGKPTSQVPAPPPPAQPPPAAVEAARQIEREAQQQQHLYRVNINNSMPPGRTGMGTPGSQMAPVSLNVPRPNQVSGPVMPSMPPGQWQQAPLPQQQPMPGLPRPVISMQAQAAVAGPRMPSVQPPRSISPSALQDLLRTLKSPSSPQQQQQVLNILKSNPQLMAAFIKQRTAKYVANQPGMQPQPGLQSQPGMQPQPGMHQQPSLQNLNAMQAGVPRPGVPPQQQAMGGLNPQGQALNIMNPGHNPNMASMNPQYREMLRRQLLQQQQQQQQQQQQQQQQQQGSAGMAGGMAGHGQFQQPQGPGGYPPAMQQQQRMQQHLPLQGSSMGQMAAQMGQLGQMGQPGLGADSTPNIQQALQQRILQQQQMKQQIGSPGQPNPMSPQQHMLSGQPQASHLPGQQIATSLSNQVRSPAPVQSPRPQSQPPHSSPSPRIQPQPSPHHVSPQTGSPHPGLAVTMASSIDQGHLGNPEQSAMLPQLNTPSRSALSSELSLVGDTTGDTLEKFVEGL
Assay [3] deals with LK2 cells. Nature of the assay: Antitumor activity in LK2 cell subcutaneous transplant model (Test Example 4). Conditions: dose 12.5 mg/kg/day, test end day. Format: in vivo, female BALB/c-nu/nu mice. An excerpt: [Test Example 4] Evaluation of Antitumor Activity in LK2 Cell Subcutaneous Transplant Model
LK2 cells were transplanted at a rate of 2×10^6 cells/head subcutaneously into a right abdominal site of each of female BALB/c-nu/nu mice, and 7 days after, the mice were grouped into groups each consisting of 5 mice based on an estimated tumor volume (longer diameter×shorter diameter×shorter diameter/2) and the weight. The LK2 cells were purchased from Human Science Research Resources Bank. […] The estimated tumor volume of each individual was measured from the day of grouping until 18 days after the transplantation (test end day).
(§2) The antitumor activity in LK2 cell subcutaneous transplant model of Test Example 4, the antitumor activity in TE-8 cell subcutaneous transplant model of Test Example 5, the antitumor activity in KARPASS-422 cell subcutaneous transplant model of Test Example 6, the antitumor activity in NMC10-15 cell subcutaneous transplant model of Test Example 7, and the antitumor activity in VCaP cell subcutaneous transplant model of Test Example 8 were respectively calculated on the end dates of the tests in accordance with the following equation: Tumor Growth Inhibition Rate %=(1−TVCt/TVCc)×100 TVC=(individual tumor volume on test end day)−(individual tumor volume on grouping day)
TVCt: average of TVC values of administration group […]

For assay [4], the system named is TE-8 cells. Briefly: Antitumor activity in TE-8 cell subcutaneous transplant model (Test Example 5). The settings on record: TE-8 subcutaneous transplant model, dose 6 mg/kg/day, test end day. Format: in vivo, female BALB/c-nu/nu mice.
Excerpt: [Test Example 5] Evaluation of Antitumor Activity in TE-8 Cell Subcutaneous Transplant Model
TE-8 cells were transplanted at a rate of 1×10^7 cells/head subcutaneously into a right abdominal site of each of female BALB/c-nu/nu mice, and 9 days after (Example 73) or 10 days after (Examples 35 and 84), the mice were grouped into groups each consisting of 5 mice based on an estimated tumor volume (longer diameter×shorter diameter×shorter diameter/2) and the weight. The TE-8 cells were purchased from Riken Cell Bank. The female BALB/c-nu/nu mice were purchased from Charles River Laboratories Japan, Inc.
From the day of grouping, the compound of Example 73 at a dose set to 2 mg/kg/day was orally administered in accordance with a schedule of twice a day continuously for 9 days (BID x 9). The estimated tumor volume of each individual was measured from the day of grouping until 18 days after the transplantation (test end day).
Besides, from the day of grouping, the compound of […] at a dose set to 2 mg/kg/day was orally administered in accordance with a schedule of twice a day continuously for 11 days (BID x 11). The estimated tumor volume of each individual was measured from the day of grouping until 21 days after the transplantation (test end day).
as §2
TVCt: average of TVC values of administration group
TVCc: average of TVC values of non-administration group

For assay [5], the system named is KARPAS-422 cells. Briefly: Antitumor activity in KARPAS-422 cell subcutaneous transplant model (Test Example 6). The assay is classed as in vivo, female SCID mice. The settings on record: KARPAS422 subcutaneous transplant model, dose 6 mg/kg/day, test end day.
Excerpt: [Test Example 6] Evaluation of Antitumor Activity in KARPAS-422 Cell Subcutaneous Transplant Model
KARPAS-422 cells of human diffuse large B-cell lymphoma were transplanted at a rate of 2×10^7 cells/head subcutaneously into a right abdominal site of each of female SCID mice, and 10 days after, the mice were grouped into groups each consisting of 5 mice based on an estimated tumor volume (longer diameter×shorter diameter×shorter diameter/2) and the weight. The KARPAS-422 cells were purchased from Deutsche Sammlung von Mikroorganismen und Zelkulturen GmbH. […] The estimated tumor volume of each individual was measured from the day of grouping until 28 days after the transplantation (test end day).
as §2, with “grouping day) […]” for “grouping day)”

In assay [6] the test system is H3K27Ac. Briefly: Intracellular H3K27Ac inhibitory activity in LK2 cells (Test Example 2). The settings on record: Homo sapiens, LK-2, cultured with compound for 3 hours, read-out: Test Example 2 H3K27Ac Inhibition (LK2) IC50. Format: cell-based. The method, boiled down:
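Human squamous lung cancer LK2 cells (40000/well) cultured overnight at 37 °C, 5% CO2 before treatment. After paraformaldehyde fixation, peroxide quench and blocking, H3K27 acetylation detected with anti-acetyl-H3K27 rabbit mAb (4 °C overnight) and HRP secondary; chemiluminescent read-out.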

Assay [7] deals with LK2 cells. Briefly: Cell growth inhibitory activity, LK2 cells (Test Example 3). Format: cell-based. The settings on record: Homo sapiens, LK-2, 72 h, cultured for 3 days, CellTiter-Glo. The method, boiled down:
(§3)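 LK2 and TE-8 […] cells in RPMI 1640 with 10% FBS exposed to 10-point 4-fold dilutions (10 mM to 38 nM, stock series) for 3 days. ATP luminescence (CellTiter-Glo 2.0) at day 0 and day 3 gave survival as (T3−C0)/(C3−C0)×100; GI50 from semilog plot.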
On the technique in general: ATP-based viability assays read luminescence as a measure of living cells.

For assay [8], the system named is TE-8 cells. Nature of the assay: Cell growth inhibitory activity, TE-8 cells (Test Example 3). The settings on record: Homo sapiens, 72 h, cultured for 3 days, CellTiter-Glo. Format: cell-based. The method, boiled down: as §3
Assay [9] deals with NMC10-15 cells. Nature of the assay: Antitumor activity in NMC10-15 cell subcutaneous transplant model (Test Example 7). Format: in vivo, female BALB/c-nu/nu mice. Conditions: NMC10-15 subcutaneous transplant model, dose 0.3 mg/kg/day, oral, QD×9, 15 days after transplantation.
Excerpt: [Test Example 7] Evaluation of Antitumor Activity in NMC10-15 Cell Subcutaneous Transplant Model
NMC10-15 cells derived from human nut midline carcinoma were transplanted at a rate of 5×10^6 cells/head subcutaneously into a right abdominal site of each of female BALB/c-nu/nu mice, and 6 days after, the mice were grouped into groups each consisting of 5 mice based on an estimated tumor volume (longer diameter×shorter diameter×shorter diameter/2) and the weight. […] The estimated tumor volume of each individual was measured from the day of grouping until 15 days after the transplantation (test end day).
as §2, with “grouping day) […]” for “grouping day)”

For assay [10], the system named is VCaP cells. Briefly: Antitumor activity in VCaP cell subcutaneous transplant model (Test Example 8). Conditions: dose 10 mg/kg/day, oral, QOD×8, 24 days after transplantation. Format: in vivo, male NSG mice.
Excerpt: [Test Example 8] Evaluation of Antitumor Activity in VCaP Cell Subcutaneous Transplant Model
VCaP cells derived from human prostate cancer were transplanted at a rate of 1×10^7 cells/head subcutaneously into a right abdominal site of each of male NSG mice, and 8 days after, the mice were grouped into groups each consisting of 5 mice based on an estimated tumor volume (longer diameter×shorter diameter×shorter diameter/2) and the weight. The VCaP cells were purchased from American Type Culture Collection. […] The estimated tumor volume of each individual was measured from the day of grouping until 24 days after the transplantation (test end day).
as §2, with “grouping day) […]” for “grouping day)”

Regarding `COc1ccc(C2(C(=O)N3C[C@H](F)C[C@@H]3C(=O)Nc3ccc4[nH]ncc4n3)CCCCC2)cc1` [Example 35, (4R)-4-Fluoro-1-{[1-(4-methoxyphenyl)cyclohexyl]carbonyl}-N-1H-pyrazolo[4,3-b]pyridin-5-yl-D-prolinamide], the IC50 in [1] worked out at 24 nM; in assay [2] it was 10 nM. Also, the “Tumor Growth Inhibition Rate” value in assay [3] is 44%; in [4], 51%; in assay [5] it was 66%.
In the case of `O=C(Nc1ccc2[nH]ncc2n1)[C@H]1C[C@@H](F)CN1C(=O)C1(c2ccc(OC(F)F)cc2)CCC(F)(F)CC1` [Example 84, (4R)-1-({1-[4-(Difluoromethoxy)phenyl]-4,4-difluorocyclohexyl}carbonyl)-4-fluoro-N-1H-pyrazolo[4,3-b]pyridin-5-yl-D-prolinamide], the IC50 was found to be 26 nM in assay [1], 39 nM in [2] and 22 nM in assay [6]. Moreover, the figures for the GI50 in assay [7] and in assay [8] were 97.2 nM and 152 nM, respectively. In addition, the “Tumor Growth Inhibition Rate” value was found to be 66% in assay [9] and 77% in assay [10].
